Data reported in patent US10479795B2 (Incyte Corporation, priority 2016, dated 2019).
Counter-ions that a name gives are not always drawn.

Key:
[1] = target: PI3Kγ (p110γ) Recombinant Human Protein (Homo sapiens (Human), UniProt P48736); assay: PI3K-γ Scintillation Proximity Assay; assay type: biochemical; settings: read-out: PI3Kγ IC50
Summary of the method: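 Recombinant human p110γ assayed at room temperature in 20 mM MOPS pH 6.7, 10 mM MgCl2, 5 mM DTT, 0.03% CHAPS, 2% DMSO, with 20 μM PIP2 and 2 μM ATP plus [γ-33P]ATP. Product captured on WGA SPA beads overnight and counted; IC50 fitted from % of solvent-control activity versus log inhibitor concentration.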

[2] = target: PI3Kδ (p110δ/p85α) Recombinant Human Protein (Homo sapiens (Human), UniProt O00329); assay: PI3Kδ Scintillation Proximity Assay; assay type: biochemical
Chain of PI3Kδ (p110δ/p85α) Recombinant Human Protein (O00329 whole entry): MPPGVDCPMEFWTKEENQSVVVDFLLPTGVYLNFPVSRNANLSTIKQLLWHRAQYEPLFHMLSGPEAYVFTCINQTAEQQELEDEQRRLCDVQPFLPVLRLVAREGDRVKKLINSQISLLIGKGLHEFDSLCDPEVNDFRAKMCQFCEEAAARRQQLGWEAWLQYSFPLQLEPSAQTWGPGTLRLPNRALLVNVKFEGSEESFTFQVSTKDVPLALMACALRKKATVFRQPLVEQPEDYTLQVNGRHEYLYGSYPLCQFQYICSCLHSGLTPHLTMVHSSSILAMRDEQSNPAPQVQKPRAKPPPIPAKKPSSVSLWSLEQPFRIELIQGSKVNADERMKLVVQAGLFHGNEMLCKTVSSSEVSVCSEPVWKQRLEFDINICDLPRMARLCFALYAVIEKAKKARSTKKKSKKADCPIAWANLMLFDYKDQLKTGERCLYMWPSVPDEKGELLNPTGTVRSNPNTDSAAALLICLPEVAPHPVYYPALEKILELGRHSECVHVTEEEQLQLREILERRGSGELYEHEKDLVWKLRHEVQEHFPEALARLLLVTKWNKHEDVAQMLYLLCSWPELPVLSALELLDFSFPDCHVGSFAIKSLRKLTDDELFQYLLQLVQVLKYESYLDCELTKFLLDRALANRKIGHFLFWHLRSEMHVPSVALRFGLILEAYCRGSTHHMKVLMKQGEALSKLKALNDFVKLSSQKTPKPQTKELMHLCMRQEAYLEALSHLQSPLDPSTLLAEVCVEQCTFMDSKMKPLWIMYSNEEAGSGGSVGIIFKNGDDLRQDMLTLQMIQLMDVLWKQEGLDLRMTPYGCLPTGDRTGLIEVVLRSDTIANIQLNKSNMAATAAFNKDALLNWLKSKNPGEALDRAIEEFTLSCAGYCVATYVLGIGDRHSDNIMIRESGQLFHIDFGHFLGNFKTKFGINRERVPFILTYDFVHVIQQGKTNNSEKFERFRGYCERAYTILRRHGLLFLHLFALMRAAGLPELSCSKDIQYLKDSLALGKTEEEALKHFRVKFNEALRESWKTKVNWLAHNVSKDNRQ
Chain of PI3Kδ (p110δ/p85α) Recombinant Human Protein (P27986 whole entry partner): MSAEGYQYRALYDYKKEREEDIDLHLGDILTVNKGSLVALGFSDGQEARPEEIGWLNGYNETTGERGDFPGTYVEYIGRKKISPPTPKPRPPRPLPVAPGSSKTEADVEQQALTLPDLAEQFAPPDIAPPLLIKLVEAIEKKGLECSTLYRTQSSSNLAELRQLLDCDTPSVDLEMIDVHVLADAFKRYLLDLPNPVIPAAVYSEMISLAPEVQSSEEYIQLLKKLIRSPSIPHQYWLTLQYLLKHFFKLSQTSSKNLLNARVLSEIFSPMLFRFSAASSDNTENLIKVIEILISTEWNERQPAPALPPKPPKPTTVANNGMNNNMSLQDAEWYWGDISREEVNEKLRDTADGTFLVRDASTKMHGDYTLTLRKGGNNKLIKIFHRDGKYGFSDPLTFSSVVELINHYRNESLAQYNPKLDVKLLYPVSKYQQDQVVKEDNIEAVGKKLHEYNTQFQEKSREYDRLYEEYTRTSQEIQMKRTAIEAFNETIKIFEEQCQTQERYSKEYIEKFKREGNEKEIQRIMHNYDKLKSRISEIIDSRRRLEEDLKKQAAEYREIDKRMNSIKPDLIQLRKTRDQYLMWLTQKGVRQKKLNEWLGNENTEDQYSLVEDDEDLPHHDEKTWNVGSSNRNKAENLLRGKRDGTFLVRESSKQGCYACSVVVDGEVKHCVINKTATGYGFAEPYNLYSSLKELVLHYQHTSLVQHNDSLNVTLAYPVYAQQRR
Summary of the method: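 Kinase reaction run at room temperature in 20 mM MOPS pH 6.7, 10 mM MgCl2, 5 mM DTT, 0.03% CHAPS with 20 μM PIP2, 2 μM ATP plus [γ-33P]ATP, 3.4 nM enzyme, 2% DMSO; 120 min. Quenched with WGA SPA beads/EDTA, counted by scintillation; IC50 from % solvent-control activity vs log concentration.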

[3] = test system: Phosphorylated Ribosomal Protein S6 (RPS6); assay: THP-1 RPS6 ELISA Assay; assay type: cell-based, Human; settings: Homo sapiens; THP-1 cells; read-out: PI3Kγ_THP1_RPS6_ELISA IC50
Method: To measure the Phosphorylated Ribosomal Protein S6 (RPS6) in cell lysates, THP-1 cells (Human Acute Monocytic Leukemia) are purchased from ATCC (Manassas, Va.) and maintained in RPMI with 10% FBS (Gibco/Life Technologies, Carlsbad, Calif.). For the assay, THP-1 cells are serum starved overnight in RPMI, then plated in RPMI (2×10^5 cells/well in 90 μL) into 96-well flat-bottom tissue culture treated plates (Corning, Corning, N.Y.), in the presence or absence of a concentration range of test compounds. Covered plates are incubated for 2 hours at 37° C., 5% CO2 then treated with or without 10 nM MCP-1 (MYBioSource, San Diego, Calif.) for 15 minutes at 37° C., 5% CO2. Plates are centrifuged at 1600 RPM and supernatants are removed. Cells are lysed in Lysis Buffer (Cell Signaling, Danvers, Mass.) with Protease Inhibitor (Calbiochem/EMD, Germany), PMSF (Sigma, St Louis Mo.), HALTS (Thermo Fisher, Rockford, Ill.) for 30 min on wet ice. Cell lysates are frozen at −80° C. before testing. The lysates are tested in the Human/Mouse/Rat Phospho-RPS6 ELISA (R&D Systems, Inc. Minn, Minn.). The plate is measured using a microplate reader (SpectraMax M5 —Molecular Devices, LLC Sunnyvale, Calif.) set to 450 nm with a wavelength correction of 540. IC50 determination is performed by fitting the curve of inhibitor percent inhibition versus the log of the inhibitor concentration using the GraphPad Prism 5.0 software.

Chain of PI3Kγ (p110γ) Recombinant Human Protein (P48736 whole entry): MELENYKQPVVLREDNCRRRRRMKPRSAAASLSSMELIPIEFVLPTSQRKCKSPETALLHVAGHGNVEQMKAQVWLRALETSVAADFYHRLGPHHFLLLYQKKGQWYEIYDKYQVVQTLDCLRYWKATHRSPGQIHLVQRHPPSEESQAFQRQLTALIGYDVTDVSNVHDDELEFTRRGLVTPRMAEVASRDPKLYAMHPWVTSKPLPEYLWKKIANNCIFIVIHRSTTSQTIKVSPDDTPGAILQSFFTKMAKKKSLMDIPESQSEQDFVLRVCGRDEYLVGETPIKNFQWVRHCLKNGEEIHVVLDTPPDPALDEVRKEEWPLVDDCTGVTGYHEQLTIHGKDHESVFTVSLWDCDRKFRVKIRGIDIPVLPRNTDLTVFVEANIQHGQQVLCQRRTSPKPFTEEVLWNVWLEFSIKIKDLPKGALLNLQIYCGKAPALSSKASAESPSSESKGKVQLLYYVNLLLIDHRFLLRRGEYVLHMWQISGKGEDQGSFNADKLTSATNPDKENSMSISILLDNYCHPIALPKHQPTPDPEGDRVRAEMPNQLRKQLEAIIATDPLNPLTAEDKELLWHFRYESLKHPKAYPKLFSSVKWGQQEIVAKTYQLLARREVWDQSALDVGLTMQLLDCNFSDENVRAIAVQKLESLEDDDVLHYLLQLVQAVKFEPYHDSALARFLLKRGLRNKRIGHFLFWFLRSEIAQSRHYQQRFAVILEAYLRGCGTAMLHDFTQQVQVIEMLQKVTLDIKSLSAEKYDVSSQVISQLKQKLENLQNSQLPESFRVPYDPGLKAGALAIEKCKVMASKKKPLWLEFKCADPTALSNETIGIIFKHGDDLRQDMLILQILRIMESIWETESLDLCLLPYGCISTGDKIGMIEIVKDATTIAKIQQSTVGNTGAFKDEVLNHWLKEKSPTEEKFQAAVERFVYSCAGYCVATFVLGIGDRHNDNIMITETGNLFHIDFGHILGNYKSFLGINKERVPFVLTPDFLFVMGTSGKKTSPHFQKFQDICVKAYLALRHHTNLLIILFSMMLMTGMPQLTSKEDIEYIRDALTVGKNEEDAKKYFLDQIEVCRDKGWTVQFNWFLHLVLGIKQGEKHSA

| SMILES | IC50 [1] [nM] | IC50 [2] [nM] | IC50 [3] [nM] |
| --- | --- | --- | --- |
| Cc1ccc(S(=O)(=O)N[C@H]2CC[C@H](O)CC2)cc1-c1cnc2c(N)cc(-c3ccnn3C)cn12 [Example 10, 3-[8-Amino-6-(1-methyl-1H-pyrazol-5-yl)imidazo[1,2-a]pyridin-3-yl]-N-(trans-4-hydroxycyclohexyl)-4-methylbenzenesulfonamide bis(trifluoroacetate)] | < 100 | 100 to 500 | > 1000 |
| Cc1ccc(S(=O)(=O)N[C@H]2CC[C@H](O)CC2)cc1-c1cnc2c(N)c(Cl)ccn12 [Example 11, 3-(8-Amino-7-chloroimidazo[1,2-a]pyridin-3-yl)-N-(trans-4-hydroxycyclohexyl)-4-methylbenzenesulfonamide trifluoroacetate] | < 100 | 500 to 2000 | < 100 |
| Cc1ccc(S(=O)(=O)N[C@H]2CC[C@H](O)CC2)cc1-c1cnc2c(N)c(-c3cnn(C)c3)ccn12 [Example 12, 3-[8-Amino-7-(1-methyl-1H-pyrazol-4-yl)imidazo[1,2-a]pyridin-3-yl]-N-(trans-4-hydroxycyclohexyl)-4-methylbenzenesulfonamide] | < 100 | 100 to 500 | 100 to 500 |
| Cc1ccc(S(=O)(=O)N[C@H]2CC[C@H](O)CC2)cc1-c1cnc2c(N)nccn12 [Example 13, 3-(8-Aminoimidazo[1,2-a]pyrazin-3-yl)-N-(trans-4-hydroxycyclohexyl)-4-methylbenzenesulfonamide] | < 100 | 100 to 500 | 100 to 500 |
| CCS(=O)(=O)Nc1cc(-c2cnc3c(N)nccn23)cnc1F [Example 14, N-[5-(8-Aminoimidazo[1,2-a]pyrazin-3-yl)-2-fluoropyridin-3-yl]ethanesulfonamide bis(trifluoroacetate)] | < 100 | < 100 | > 1000 |
| Cc1ccc(S(=O)(=O)NCC2(C)COC2)cc1-c1cnc2c(N)nccn12 [Example 15, 3-(8-Aminoimidazo[1,2-a]pyrazin-3-yl)-4-methyl-N-[(3-methyloxetan-3-yl)methyl]benzenesulfonamide trifluoroacetate] | < 100 | 500 to 2000 | > 1000 |
| Cc1ccc(S(=O)(=O)N[C@H]2CC[C@H](O)CC2)cc1-c1cnc2c(N)nc(Br)cn12 [Example 16, 3-(8-Amino-6-bromoimidazo[1,2-a]pyrazin-3-yl)-N-(trans-4-hydroxycyclohexyl)-4-methylbenzenesulfonamide] | < 100 | < 100 | < 100 |
| Cc1ccccc1-c1cn2c(-c3cc(S(=O)(=O)N[C@H]4CC[C@H](O)CC4)ccc3C)cnc2c(N)n1 [Example 17, 3-[8-Amino-6-(2-methylphenyl)imidazo[1,2-a]pyrazin-3-yl]-N-(trans-4-hydroxycyclohexyl)-4-methylbenzenesulfonamide] | < 100 | 100 to 500 | 100 to 500 |
| Cc1ccc(-c2cn3c(-c4cc(S(=O)(=O)N[C@H]5CC[C@H](O)CC5)ccc4C)cnc3c(N)n2)cc1 [Example 18, 3-[8-Amino-6-(4-methylphenyl)imidazo[1,2-a]pyrazin-3-yl]-N-(trans-4-hydroxycyclohexyl)-4-methylbenzenesulfonamide] | < 100 | 100 to 500 | < 100 |
| Cc1cccc(-c2cn3c(-c4cc(S(=O)(=O)N[C@H]5CC[C@H](O)CC5)ccc4C)cnc3c(N)n2)c1 [Example 19, 3-[8-Amino-6-(3-methylphenyl)imidazo[1,2-a]pyrazin-3-yl]-N-(trans-4-hydroxycyclohexyl)-4-methylbenzenesulfonamide] | < 100 | 100 to 500 | < 100 |
| Cc1ccc(S(=O)(=O)N[C@H]2CC[C@H](O)CC2)cc1-c1cnc2c(N)nc(-c3ccc(F)cc3)cn12 [Example 20, 3-[8-Amino-6-(4-fluorophenyl)imidazo[1,2-a]pyrazin-3-yl]-N-(trans-4-hydroxycyclohexyl)-4-methylbenzenesulfonamide] | < 100 | < 100 | < 100 |
